Laboratory results from patent publication US5489524A, “Chimeric protein that has a human Rho motif and deoxyribonuclease activity” (The United States of America as represented by the …, priority 1992, dated 1996).

Tested on: Mammalian Endo-Exonuclease
Assay: ss- and ds-DNase activities of the purified endo-exonuclease with divalent metal ions, NaCl, ATP or GTP (release of acid-soluble radioactivity from 32P-labeled pBR322 DNA)
Assay type: biochemical, Monkey
Details: for Activity % ds-DNase / Activity % ss-DNase: 37° C.
Experimental: The assay mixture contained 100 mM Tris-HCl pH 8.0, 10 mM MgCl2, and 17 μg of ^32 P-labelled linearized plasmid DNA. One unit of activity is defined as the amount of deoxyribonuclease which renders 1 μg of DNA acid-soluble in 30 min at 37° C. The plasmid was labeled using a random oligo-priming kit (Pharmacia Fine Chemical).
The ratios are calculated with respect to the activity of 10 mM Mg^2+ (100%).
The nuclease activities of putative recombination nucleases of E. coli are known to be affected by ATP. Moreover S. cerevisiae endo-exonuclease is believed to contain a region homologous to GTP-binding sites. The effects of ATP and GTP on the purified mammalian endo-exonuclease were therefore chosen to study.

[1] = metal ion 0.5 mM, activity with 10 mM Mg^2+ = 100%
[2] = metal ion 5.0 mM, activity with 10 mM Mg^2+ = 100%
[3] = metal ion 10.0 mM, reference = 100%
[4] = metal ion […], activity with 10 mM Mg^2+ = 100%
[5] = 0.1 mM nucleotide added, 10 mM Mg^2+
[6] = 1.0 mM nucleotide added, 10 mM Mg^2+
[7] = metal ion 1.0 mM, activity with 10 mM Mg^2+ = 100%
[8] = metal ion 0.1 mM, activity with 10 mM Mg^2+ = 100%

Ratio of Activities for ss/ds-DNase (metal ion 0.5 mM) | Activity % ds-DNase [1] [%] | Activity % ss-DNase [1] [%] | Activity % ss-DNase [2] [%] | Activity % ds-DNase [4] [%] | Activity % ss-DNase [4] [%] | ability to replace Mg^2+ as cofactor | concentration with inhibitory effects on the nuclease activities [mM] | Activity % ss-DNase [7] [%] | Structure (SMILES) | other results
2.2 | 128 | 217 | 173 | 168 | 203 |  |  |  | [Mg+2] [Mg^2+] | optimal concentration for ds-DNase: 2.5 mM; optimal concentration for ss-DNase: 0.5 mM; Activity % ds-DNase [2]: 120%; Ratio of Activities for ss/ds-DNase (metal ion 10.0 mM): 1.3; Activity % ds-DNase [3]: 100%; Activity % ss-DNase [3]: 100%
 |  |  |  |  |  |  |  |  | Nc1nc2c(ncn2[C@@H]2O[C@H](COP(=O)(O)OP(=O)(O)OP(=O)(O)O)[C@@H](O)[C@H]2O)c(=O)[nH]1 [GTP] | effect on ds-DNase activity (0.1 mM): slight enhancement of ds-DNase activity; Activity % ds-DNase [5]: 112%; Activity % ss-DNase [5]: 85%; Activity % ds-DNase [6]: 73%; Activity % ss-DNase [6]: 68%; effect on ss-DNase and ds-DNase activities (0.1-1.0 mM): slightly inhibited
1.7 | 195 | 258 | 0 | 0 | 0 | partially substitute for Mg^2+ | ≥ 2.0 | 215 | [Mn+2] [Mn^2+] | Ratio of Activities for ss/ds-DNase (metal ion 1.0 mM): 1.4; Activity % ds-DNase [7]: 212%; Activity % ss-DNase (metal ion 2.0 mM, activity with 10 mM Mg^2+ = 100%): 0%
 | 0 | 0 |  | 0 | 0 | partially substitute for Mg^2+ | ≥ 0.25 | 0 | [Zn+2] [Zn^2+] | Activity % ds-DNase [8]: 70%; Activity % ss-DNase [8]: 75%
